Tests used:
[1] = equilibrium solubility of β-lapachone with bisulfites, HPLC; assay type: physicochemical; conditions: 3-15 mg/mL sodium metabisulfite or sodium bisulfite in water or 2.5-5% HPβCD; shaken 24 hours
Method: Solutions of bisulfites at different concentrations were prepared in water or 2.5% HPβCD and an excess amount of β-lapachone was added to obtain a saturated solution. These solutions were shaken for 24 hours, filtered through a 0.45 μm filter, and analyzed for β-lapachone concentration by HPLC. The equilibrium solubility results, in the presence and absence of HPβCD, are illustrated in FIGS. 1A to 1C. Bisulfite can enhance the equilibrium solubility of β-lapachone depending on the concentration of the bisulfites. […] The solubility of the β-lapachone is directly proportional with the amounts of bisulfites added, until they reach respective saturation concentrations (See FIG. 1C).

human cancer cell lines = conditions: single agent, typical range, read-out: antineoplastic activity (IC50); cited from earlier work
[2] = system: normal or proliferating human PBMC; conditions: cited from earlier work
[3] = Source text: Methyl beta-cyclodextrin (MeβCD) is a derivative of beta-cyclodextrin with 1-7 methyl substituents on the secondary O-2 positions.
HPβCD with two different degrees of substitutions, 6.9 and 4.3, were compared in terms of β-lapachone solubility.

[4] = maximum concentrations of β-lapachone converted to Compound 1 at different pHs; assay type: physicochemical
[5] = reversion of Compound 1 to β-lapachone in dilute or buffered solution (UV-vis, HPLC); assay type: physicochemical
Source text: Thus, compound 1 also reverts back to β-lapachone under the conditions of high pH or when mixed with plasma. The hydroxy sulfonate of β-lapachone easily reverts back to β-lapachone in dilute solutions of bisulfite and other reagents. […] However, the mass by LC/MS for Compound 1 can be obtained using a short LC method where the acetonitrile/water mobile phase is acidified with 0.1% formic acid. Even under these conditions, two peaks are observed, one peak corresponding to Compound 1, and one to the β-lapachone released from the complex.

[6] = reversion of Compound 1 to β-lapachone in human plasma (UV-vis); assay type: in vitro ADME; conditions: diluted human plasma
Source text: Thus, compound 1 also reverts back to β-lapachone under the conditions of high pH or when mixed with plasma.

SMILES | equilibrium solubility in aqueous solution [1] | IC50 (human cancer cell lines) [µM] | cytotoxic effects [2] | higher solubilizing effect of HPβCD of lower degree of substitution on β-lapachone solubility [3] | Converted β-lapachone Conc. ([4]; Na2S2O5 5 mg/mL, pH of the formulation 3.01) [mg/mL] | Converted β-lapachone Conc. ([4]; Na2S2O5 5 mg/mL, pH of the formulation 4.46) [mg/mL] | Converted β-lapachone Conc. ([4]; Na2S2O5 5 mg/mL, pH of the formulation 7.04) [mg/mL] | Converted β-lapachone Conc. ([4]; NaHSO3 5 mg/mL, pH of the formulation 3.29) [mg/mL] | Converted β-lapachone Conc. ([4]; NaHSO3 5 mg/mL, pH of the formulation 4.52) [mg/mL] | Converted β-lapachone Conc. ([4]; NaHSO3 5 mg/mL, pH of the formulation 7.04) [mg/mL] | stability: reversion to β-lapachone ([5]; diluted in phosphate buffered saline at pH 7, UV-vis) | stability: reversion to β-lapachone ([5]; diluted with mobile phase of acetonitrile and phosphate buffer pH 6.8, HPLC) | stability: reversion to β-lapachone ([5]; dilution to 20-100 μM or less, or pH increased to 6-7 or higher in combination with dilution, UV-vis) | stability in human plasma: reversion to β-lapachone ([6]; pH 7) | stability in human plasma: reversion to β-lapachone ([6]; pH 7, listed as compound 1)
CC1(C)CCC2=C(O1)c1ccccc1C(=O)C2=O [β-lapachone, 3,4-dihydro-2,2-dimethyl-2H-naphtho[1,2-b]pyran-5,6-dione] | dramatically improve the solubility | 1 to 10 | No cytotoxic effects were observed | 16-17% | 5.90 | 5.76 | 1.88 | 5.76 | 5.97 | 2.23 |  |  |  |  | 
CC1(C)CCC2=C(O1)c1ccccc1C(O)(S(=O)(=O)[O-])C2=O.[Na+] (stereo not drawn) [Compound 1, Sodium 6-hydroxy-2,2-dimethyl-5-oxo-3,4,5,6-tetrahydro-2H-benzo(h)chromene-6-sulfonate] |  |  |  |  |  |  |  |  |  |  | UV-vis spectrum become identical to that for a solution of β-lapachone | only the β-lapachone can be detected | converts Compound 1 back to β-lapachone | UV-vis spectrum become identical to that for a solution of β-lapachone | the only species present is β-lapachone
